This note sets out measurements from a melting point compilation (Tetko et al.; mined from patent text by program, amines drawn as free bases though some values may be those of a salt).

Each structure is given as a SMILES string.

`C=CCCC1C=CCC2=C1C(=O)C1=C(CCCC1)C2=O` (stereo not given): the melting point was in the range of 47 to 48 °C. `COc1ccc2ccc(O)c([N+](=O)[O-])c2c1` registered a melting point of 130 to 131 °C. Then `O=C(O)CN(CF)C(=O)c1ccccc1`, with 233 to 235 °C; and `COc1ccccc1CC(=O)N1CCCc2ncc3ccccc3c21`, with 108 to 111 °C. The value for `OCc1nccc2c1[nH]c1ccccc12` was 228 to 230 °C.

As for `CC1(C)CC(=O)c2cc[nH]c2C1`, the melting point lay within 177 to 178 °C. With `CCCCN(C1CS(=O)(=O)c2ccccc21)S(C)(=O)=O` (stereo not given), the melting point was 171 to 173 °C. The value for `CN(C(CCn1c(=O)[nH]c2ccccc2c1=O)C(=O)NO)S(=O)(=O)c1ccc(Oc2cccc(Cl)c2)cc1` (stereo not given) was 137 to 140 °C; that for `CCOC(=O)C(=O)N(CC)C(=O)OCCOc1ccc(Oc2ccccc2)cc1` was 56 to 58 °C. `Cc1ccc(N2C(=O)C=CC2=O)cc1N1C(=O)C=CC1=O` gave a melting point of 168 to 172 °C. `C=CCOc1ccc(C(O)CN2CCN(C(c3ccccc3)c3ccccc3)CC2)cc1` (stereo not given) registered a melting point of 100 °C. Then `CCCC(=O)NC[C@@H]1C[C@H]1c1cc(OC)c(Br)cc1Br` (relative stereo), with 114 to 115 °C; and `CCOC(=O)C1=C(C)Nc2cc[nH]c(=O)c2C1c1ccccc1F` (stereo not given), with 183 to 184 °C; and `Nc1ccc(OCc2ccccc2)c(CCCc2ccc(NC(=O)Cc3cccnc3)cc2)c1`, with 110 to 112 °C. Then `NC(=O)c1ccc(Br)c(OC(F)F)c1Br`, with 186 °C; and `Cc1nc(C)c(-c2ccc(OC3SCC(O)C(O)C3O)cn2)s1` (stereo not given), with 175 °C.

In the case of `NCCC1CCC(C(O)(P(=O)(O)O)P(=O)(O)O)CC1` (stereo not given), the melting point was 226 to 230 °C. Then `N#CCc1ccc(-c2nc3ccccc3o2)cc1Br`, with 190 to 191 °C.

The compound `CC(C)NC(=O)Oc1ccc2c(N(C)CCN3CCOCC3)noc2c1` had a melting point of 99 to 100 °C. Then `OCCCCOc1nc(F)c(Cl)cc1Cl`, with 38 to 39 °C. The value for `COc1cc(NC(=O)C(C#N)=CNc2ccc(Br)c(OC)c2)c(Cl)cc1Cl` was > 250 °C; that for `COc1ccc(CCNC(=O)C(F)(F)F)cc1NC(C)=O` was 105 to 106 °C; that for `COC(=O)c1cnco1` was 35 to 50 °C.

In the case of `COCn1ccnc1C(O)(c1ccccc1)c1cccc(C(F)(F)F)c1` (stereo not given), the melting point is 152 to 154 °C.

Compound `CCOc1cc(-c2cc(C(F)(F)F)n3ncc(-c4ccnc(C)c4)c3n2)ccc1C(F)(F)F` came in with a melting point of 226 °C.

`COc1ccc(C(=O)Nc2ccc(Cl)c(Cl)c2)cc1NS(C)(=O)=O` registered a melting point of 226 to 228 °C. The compound `COC=CC(C)(C)C(=O)Nc1ccc(Cl)cc1` came in with a melting point of 93 °C. The value for `CCC(=O)OCC1(COC(=O)CC)c2ccccc2-c2ccccc21` was 82 to 83 °C.

In turn, `COc1cc(C(=O)NS(=O)(=O)c2ccccc2C)ccc1Cc1cn(C)c2ccc(C(=O)NC[C@H](C)CC(F)(F)F)cc12` gave a melting point of 142 to 144 °C. The value for `CCCC/C(=C\C=C\C(=O)Oc1ccc([N+](=O)[O-])cc1)c1ccc(OC)cc1` was 78 to 80 °C; that for `CC1CN(C(=O)CO)C(C)(C)O1` (stereo not given) was 50 to 53 °C; that for `O=c1c2cc(F)c(N3CCCC3)nc2n(-c2ccc(F)cc2)c(=O)n1O` was 172 to 174 °C. The value for `O=c1oc2ccc(-c3ccc(F)cc3F)cc2c(=O)n1-c1ccc(Cl)cc1F` was 176 to 177 °C; that for `CCn1c2cc(C(F)(F)F)ccc2c2oc(C(=O)Cl)cc21` was 124 to 126 °C. The value for `Cc1ccc(S(=O)(=O)NC(=O)NCCC(F)=C(F)F)cc1` was 134 to 136 °C; that for `O=C1CCCN1C(=O)Oc1cccc(Cl)c1` was 88 to 89 °C; that for `[N-]=[N+]=NCCCCCCC(N)=O` was 62 °C. Consider `CCOC(=O)[C@H](CSCc1ccccc1)NC(=O)C(C)(C)NC(=O)[C@@H](SC(C)=O)C(C)C`, for which the melting point lay in the range of 69 to 71 °C. As to `CC(C)CCN1CNC(=O)C12CCN(Cc1ccccc1)CC2`, the melting point is 139 to 140 °C. The value for `O=C1CCC(N2Cc3cc(CNC(=O)Nc4ccc(Cl)c(Cl)c4)ccc3C2=O)C(=O)N1` (stereo not given) was 238 to 240 °C; that for `Cn1cc(-c2ccccc2)c(=S)c(-c2cccc(Br)c2)c1` was 185 to 188 °C. The value for `O=c1[nH]c2cc(F)ccc2n(C(c2ccccc2)c2ccccc2)c1=O` was 144 °C; that for `C1COCCN2CCOCCOCCN(CCO1)CCSCCSCC2` was 78 to 80 °C. `COC(=O)c1cccc2[nH]c(=O)n(Cc3ccc(-c4ccccc4C#N)cc3)c12` showed a melting point of 250 to 253 °C. Regarding `O=[N+]([O-])c1ccc(Sc2ccc(C(F)(F)F)cc2)c2nonc12`, the melting point lay within 134 to 138 °C. In turn, `CC(c1ccccc1)N1c2ccccc2Oc2ccccc21` (stereo not given) returned a melting point of 100 °C. Then `COc1cc(Cl)c(CCNCC(O)c2ccccc2)cc1OC` (stereo not given), with 110 to 113 °C; and `CN1CCC(c2c(O)cc(O)c3c(=O)cc(-c4ccccc4Cl)oc23)C1CC#N` (stereo not given), with 107 to 108 °C; and `CC(=O)CC(C)(C)Cn1cnc2c(N)nc3ccccc3c21`, with 214 to 216 °C. `NC(=O)c1sc2ccc(C(F)(F)F)cc2c1O` yielded a melting point of 196 to 197 °C. Then `COc1ccc(-c2cc(-c3ccccc3)nc(C)c2C(=O)O)cc1OC`, with 208 °C; and `COc1ccc(C2=NN(CCCCOc3ccc(C(=O)O)cc3)C(=O)[C@H]3CC=CC[C@@H]23)cc1Cl` (relative stereo), with 169 to 171 °C; and `CCCCCCCCC(SCCCCCC)C(=O)Nc1c(SC)cc(C)nc1SC` (stereo not given), with 75 to 76.5 °C.

As for `Cn1cc(-c2cc(-c3cnc4c(c3)CCC(=O)N4)ccn2)n(-c2ccc(C(C)(C)C#N)cc2)c1=O`, the melting point turned out to be 284 °C. `Fc1ccc2[nH]cc(C3=CCN(CC4COc5ccc6[nH]ccc6c5O4)CC3)c2c1` (stereo not given) returned a melting point of 112 °C.

Regarding `COc1ccc(-c2cnn3c(N)c(-c4cccc(Cl)c4)c(CF)nc23)cc1OC`, the melting point was 228 to 230 °C.

`CCn1cc(CCC(=O)O)c2ccccc21` showed a melting point of 50 °C.

For the compound `NC(=O)[C@@H]1C[C@H](C(=O)O)Nc2cc(Cl)cc(Cl)c21` (relative stereo), the melting point lay in the range of 220 to 222 °C. As to `O=C(NCC12CC3CC(CC(C3)C1)C2)c1cc(CC[C@H](O)CO)ccc1Cl`, the melting point is 145 to 147 °C. Then `CON1C(C)(C)CC(OC(=O)NNC(=O)OC2CC(C)(C)N(OC)C(C)(C)C2)CC1(C)C`, with 147 to 149 °C; and `O=[N+]([O-])c1ccc(S(=O)(=O)N2CCN(c3ccc(F)cc3)CC2)cc1`, with 189 to 191 °C.

As for `CCNC(=NC#N)Nc1ccc(C2=NNC(=O)CC2C)cc1` (stereo not given), the melting point lay within 208 to 209 °C.

`COc1ccccc1CNc1ccc2cc(Nc3nnc(C4CC4)o3)ccc2n1` had a melting point of 199 °C. Then `CC(C)C(=O)N[C@@H](CS)C(=O)NCCSC(=O)c1ccccc1`, with 127 to 130 °C; and `COc1cccc2c1OC(CN1CCC(CNC(=O)c3cccnc3N)CC1)CO2` (stereo not given), with 57 to 60 °C.
